Results taken from patent publication US20220232835A1, “PLANT HEALTH EFFECT OF PURPUREOCILLIUM LILACINUM” (priority 2016, published 2022).

Legend:
[1] = test system: Southern Root Knot Nematode (Meloidogyne incognita); test: Drench test in tomato: nematicidal activity (percentage of gall reduction); type: in vivo; settings: 10 mg per plant at transplanting; 3,000 Meloidogyne incognita per 100 cm^3 of soil
Method: (§1) To prepare a suitable dosage form the formulated product PL251 (liquid formulation of P. lilacinum comprising BREAK-THRU® S240 and AEROSIL®) is diluted with water to the desired concentration.
(§2) A quantity of 5,000 cm^3 of sandy loam soil, pH 6.8 per pot is mixed with 150,000 infective units (mixed population of eggs and juveniles) of the Southern Root Knot Nematode (Meloidogyne incognita). The desired concentration of Purpureocillium lilacinum strain 251 is drenched in 400 mL of solution (application A) to obtain 80% field capacity. Pots are incubated at 25° C. until transplanting of tomato seedlings (Lycopersicon lycopersicum) at 7 days after drench application A. At the day of transplanting a second drench application (application B) is carried out with 400 mL of solution.
(§3) After transplanting of tomato seedlings several post-plant application patterns are tested using 400 mL of solution per application (Table A).
(§4) In addition, 10 mg of the nematicide fluopyram (VELUM® PRIME, suspension concentrate SC 400) is applied at transplanting and used as a chemical reference. The non-treated control (UTC) is drenched with 400 mL of water at each application. […]
(§5) After the specified period the nematicidal activity is determined on the basis of the percentage of gall reduction. […] Moreover the shoot biomass is also determined to assess the overall plant health status. […]

[2] = test system: tomato seedlings (Lycopersicon lycopersicum); test: Drench test in tomato: shoot biomass (plant health); type: in vivo; settings: 10 mg fluopyram/plant at transplanting
Method: as §1, §2, §3, §4, §5

With `O=C(NCCc1ncc(C(F)(F)F)cc1Cl)c1ccccc1C(F)(F)F` [fluopyram] the “nematicidal activity (percentage of gall reduction)” value [1] was “excellent biocontrol activity” and the “shoot fresh weight vs UTC (ANOVA, Bonferroni)” value [2] was “significant improvement of shoot fresh weight”.
